In patent US9284310B2, “Inhibitors of cytomegalovirus” (Boehringer Ingelheim International GmbH, priority 2012, dated 2016):
pEC50: −log10 of the molar value.

Assays:
[1] = system: HCMV AD169 virus; test: HCMV AD169 CPE Assay (Example A); assay type: cell-based; details: Human betaherpesvirus 5, AD169, MRC5, 216 h, MRC-5 cells, 9 days, MTS readout
Method: This assay format is a CPE (Cytopathic effect)-based assay that determines the ability of compounds to protect cells against infection with a dye reduction assay (MTS of CellTiter 96® AQueous Non-Radioactive Cell Proliferation Assay from Promega). The conversion of MTS into aqueous, soluble formazan is performed by dehydrogenase enzymes found in metabolically active cells. The quantity of formazan product determined by absorbance at 490 nm is directly proportional to the number of living cells in culture.
(§1) Serial dilutions of the DMSO stock compound solution are performed using DMSO in columns 2-11 and 14-23. DMSO alone is present in columns 1, 12, 13 and 24. Four μL of the DMSO serial dilutions is obtained and diluted using […] of D-MEM 5% FBS culture medium to obtain 4% DMSO (7×).
To perform the assay, 10 µL of the freshly prepared 4% DMSO serial dilution plate is added to the assay plate containing 40 μL of MRC-5 cells plated the day before (10000 cells per well). Twenty μL of diluted virus is added to columns 2-12 and 14-24 and only D-MEM 5% FBS medium to uninfected control (columns 1 and 13) for a final DMSO concentration of 0.6%.
The virus dilution is based on the amount of virus required to obtain a Signal-to-Background of 3-4 (generally between 0.1 and 1 μL of virus stock per well or MOI=0.05). The assay plates are incubated at 37° C. with 5% CO2 for 9 days in order to obtain 100% CPE in infected control without compound (columns 12 and 24). Ten μL of freshly mixed room temperature MTS/PMS (1:20 v/v) is added and the plates are incubated at 37° C. with 5% CO2 for 4-5 h (until signal saturation at 2.3 in the 100% CPE control). The plates are sealed with TopSeal for biosafety and read on the Envision plate reader (Perkin-Elmer) or equivalent at OD 492 nm.

[2] = system: HCMV AD169 virus; test: HCMV AD169 qPCR 96-Well Assay (Example C); assay type: cell-based; details: Human betaherpesvirus 5, AD169, MRC5, 72 h; qPCR of viral DNA, MRC-5 cells, 3 days
Method: The hCMV quantitative PCR (qPCR) assay evaluates the ability of a compound to inhibit, directly or indirectly, the replication of hCMV viral DNA during the first 72 h following the infection. Compounds that inhibit either entry or the hCMV polymerase are active in this assay. Compounds are tested in the qPCR assay in 96-well plates, using a 9-point dose-response with 8 compounds for each 96-well plate. The assay was adapted from the method described by Schnepf et al., Rapid determination of antiviral drug susceptibility of human cytomegalovirus by real-time PCR, Antiviral Research 81 (2009) 64-67.
Final Concentrations: • 10 mM Tris-HCl pH8.0 • 50 mM KCl • 2 mM MgCl2 • 0.45% Tween20 • 0.45% Nonidet P40
Serial dilutions of the DMSO stock compound solution are performed using DMSO in columns 2-10. DMSO alone is present in columns 1 and 11. Column 12 remains empty. Diluted compounds are further diluted with DMEM 5% FBS cell culture medium.
To perform the assay, 25 μL of inhibitor dilutions freshly prepared is added to the assay plate containing 50 μL of MRC-5 cells plated the day before (30000 cells per well). In a 9 point dose-response, column 1 contains mock infected cells and serves at negative control, with the appropriate concentration of DMSO, columns 2 to 10 contain compound dilutions and column 11 contains infected cells, with the appropriate concentration of DMSO and serves as the positive control. Column 12 serves for the standard curve in the qPCR process. Twenty-five μL of virus diluted in DMEM 5% FBS medium (to infect at MOI=0.05) is added to columns 2-11 and only D-MEM 5% FBS medium to uninfected control (column 1) for a final DMSO concentration of 0.6%. Incubate plates at 37° C. in 5% CO2 incubator for 3 days. Whole cell lysates are then obtained by adding 100 μL of Cell lysis buffer to each well including freshly added Proteinase K at a ratio of 1:5 (i.e. 200 μL Proteinase K:1000 μL Cell Lysis buffer) and incubating the assay plate at 56° C. for 1 h. Plates are centrifuged at 1300 rpm for 2 minutes to remove any condensation before proceeding with the qPCR.
The cell lysate is carefully pipetted up and down to mix well and diluted 1:40 in H2O to give a final dilution of 1:80 relative to the 100 μL of lysis buffer that Is added to the cells. 5 μL of diluted lysate is used for the qPCR reaction. An incubation of 5 minutes at 95° C. in a PCR machine is required to inactivate the Proteinase K. The cell lysates can be stored at −20° C. or used to perform qPCR immediately.
A 81 bp fragment of US17 gene from AD169 is amplified by PCR using primers qHCMV7 and qHCMV8. The PCR product is cloned into pCR4 TOPO vector (Invitrogen) and a clone harboring the insert is selected. A mitochondrial DNA is also added to normalize the HCMV copy number. Serial dilutions of the US17 plasmid and mitochondrial DNA are performed in heat-inactivated lysis buffer at the same dilution as the cell lysates (1:80). Usually, a standard curve ranging from 10E6 to 10E2 copies (per well) is suitable.
A typical qPCR reaction consists of the following:
A qPCR cycle consists of an initial denaturation of DNA and activation of the Taq enzyme at 95° C. for 10 min followed by 45 cycles of 15 seconds at 95° C. and 1 min at 60° C. Fluorescence is measured at each cycle, following the elongation step at 60° C. The reaction, data acquisition and analysis are performed using AppliedBiosystems 7500 Real time PCR system or other suitable real-time PCR system.

[3] = system: HCMV AD169-Bac-Luc2 US2-US6 clone #26 virus; test: HCMV AD169-Bac Luciferase Assay (Example B); assay type: cell-based, Human Cytomegalovirus; details: Human betaherpesvirus 5, AD169, MRC5, 72 h, read-out: EC50 Example B
Text: This assay format is a luciferase reporter-based assay that determines the ability of compounds to inhibit the infection by detecting a luciferase signal decrease following the addition of BIGlo substrate (preparation indicated below) directly in the culture media. Mono-oxygenation of luciferin is catalyzed by luciferase in the presence of Mg2+, ATP and molecular oxygen. The generation of oxyluciferin is a luminescent reaction that can be detected with the proper platereader. Human Cytomegalovirus AD169-Bac is obtained from Dr. Thomas Shenk at Princeton University (reference paper Yu et al. 2002—J. Virol. 76 (5):2316-2328, herein incorpoarated by reference) and modified by recombineering to introduce a humanized firefly luciferase gene (Luc2) at the US2-US6 position in the HCMV genome. The virus is expanded in MRC-5 cells.
as §1
To perform the assay, 7 μL of the freshly prepared 4% DMSO serial dilution plate is added to the assay plate containing […] of MRC-5 cells plated the day before (10000 cells per well). Seventeen μL of diluted virus is added to columns 2-12 and 14-24 and only D-MEM 5% FBS medium to uninfected control (columns 1 and 13) for a final DMSO concentration of 0.6%. The virus dilution is based on the amount of virus required to obtain the highest luciferase signal possible without CPE (generally between 0.05 and 1 μL of virus stock per well or MOI=0.02). The assay plates are incubated at 37° C. with 5% CO2 for 3 days. Fifteen μL of room temperature BIGlo buffer is added to room temperature assay plates also incubated at room temperature for 15 minutes. The plates are sealed with TopSeal for biosafety and the luminescence signal is read on the TopCount plate reader (Perkin-Elmer) or equivalent.

Structure (SMILES) | pEC50 [1] | pEC50 [2] | pEC50 [3]
O=C(Nc1ccc(-c2nnc(Nc3ccccc3)[nH]2)cc1)c1cscn1 [Compound 1039] | 6.26 | 6.41 | 6.99
O=C(Nc1ccc(-c2cnc(-c3cccc(C(F)(F)F)c3)[nH]2)cc1)c1cscn1 [Compound 1018] | 6.42 | 6.57 | 7.00
